pIC50: −log10 of the molar value. ≈ marks a conversion by molar mass, not a printed value.
What was measured:
Type in all cases: biochemical
sucrase = molecular target: T1, sucrase (Homo sapiens, UniProt P14410); assay: α-glycosidase-inhibiting activity, sucrase (small intestinal brush border membrane vesicles); settings: substrate sucrose (74 mM), 0.1 M maleic acid buffer pH 6.0, 37° C., 30 minutes, glucose-oxidase method
T1 construct: suspending small intestinal brush border membrane vesicles in 0.1 M maleic acid buffer (pH 6.0); from tissue; host or cells: small intestinal brush border membrane vesicles
T1 sequence (P14410 whole entry, species assumed): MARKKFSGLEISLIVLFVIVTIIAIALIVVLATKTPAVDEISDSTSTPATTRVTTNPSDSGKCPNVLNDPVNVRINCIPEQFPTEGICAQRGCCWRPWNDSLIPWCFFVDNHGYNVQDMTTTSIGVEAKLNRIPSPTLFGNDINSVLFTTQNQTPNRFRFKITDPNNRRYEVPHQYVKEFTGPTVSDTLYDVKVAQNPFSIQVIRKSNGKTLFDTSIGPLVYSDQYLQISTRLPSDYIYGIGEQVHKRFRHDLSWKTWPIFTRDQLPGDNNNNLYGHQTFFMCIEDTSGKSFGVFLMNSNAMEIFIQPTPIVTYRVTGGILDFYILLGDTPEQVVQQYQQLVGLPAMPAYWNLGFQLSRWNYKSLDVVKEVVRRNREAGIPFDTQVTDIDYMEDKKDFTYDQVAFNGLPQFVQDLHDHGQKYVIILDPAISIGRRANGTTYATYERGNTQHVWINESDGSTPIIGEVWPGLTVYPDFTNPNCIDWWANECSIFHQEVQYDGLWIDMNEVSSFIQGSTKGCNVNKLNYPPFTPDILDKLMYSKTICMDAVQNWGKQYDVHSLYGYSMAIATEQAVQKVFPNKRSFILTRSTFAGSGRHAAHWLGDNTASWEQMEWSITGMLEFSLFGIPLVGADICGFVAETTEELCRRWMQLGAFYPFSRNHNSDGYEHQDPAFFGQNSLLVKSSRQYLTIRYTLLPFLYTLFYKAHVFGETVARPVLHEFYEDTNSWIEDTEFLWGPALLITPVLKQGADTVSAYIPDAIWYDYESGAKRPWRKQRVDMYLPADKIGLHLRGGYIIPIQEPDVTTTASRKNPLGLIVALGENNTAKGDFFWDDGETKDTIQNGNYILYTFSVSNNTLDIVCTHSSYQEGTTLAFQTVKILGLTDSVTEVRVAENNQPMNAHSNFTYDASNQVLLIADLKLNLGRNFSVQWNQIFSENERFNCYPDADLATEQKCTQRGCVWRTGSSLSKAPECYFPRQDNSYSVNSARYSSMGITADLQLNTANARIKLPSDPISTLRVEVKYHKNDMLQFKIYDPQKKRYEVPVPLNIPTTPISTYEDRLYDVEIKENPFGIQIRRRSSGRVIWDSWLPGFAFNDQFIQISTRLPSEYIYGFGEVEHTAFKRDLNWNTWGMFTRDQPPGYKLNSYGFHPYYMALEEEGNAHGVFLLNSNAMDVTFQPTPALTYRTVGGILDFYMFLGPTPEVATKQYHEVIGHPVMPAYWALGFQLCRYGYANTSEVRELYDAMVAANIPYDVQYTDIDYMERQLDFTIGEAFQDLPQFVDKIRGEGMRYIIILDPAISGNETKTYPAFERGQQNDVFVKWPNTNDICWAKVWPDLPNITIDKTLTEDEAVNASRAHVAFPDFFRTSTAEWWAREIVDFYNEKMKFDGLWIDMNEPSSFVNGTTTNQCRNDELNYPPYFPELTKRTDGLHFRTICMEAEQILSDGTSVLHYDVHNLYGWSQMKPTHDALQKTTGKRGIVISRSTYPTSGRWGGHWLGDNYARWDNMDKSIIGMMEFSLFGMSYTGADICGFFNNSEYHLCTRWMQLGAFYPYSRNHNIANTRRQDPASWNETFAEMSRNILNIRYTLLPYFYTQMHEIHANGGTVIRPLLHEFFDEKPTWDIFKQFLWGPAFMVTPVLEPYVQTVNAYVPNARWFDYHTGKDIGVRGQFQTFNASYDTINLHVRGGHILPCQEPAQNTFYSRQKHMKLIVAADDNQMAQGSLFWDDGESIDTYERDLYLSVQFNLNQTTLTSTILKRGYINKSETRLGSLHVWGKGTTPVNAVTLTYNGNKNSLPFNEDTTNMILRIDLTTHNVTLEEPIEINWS
Experimental: (§1) The compounds (6a), (6b), (6c) and (6d), each prepared by Example 25, as well as the compound (6g) prepared by Example 27 were each measured for α-glycosidase-inhibiting activity. […] To each of sucrose (74 mM), maltose (74 mM) and isomaltose (74 mM) solution as a substrate, there was added a solution (0.05 ml) of a test compound in various concentrations, and the resulting mixture was pre-heated at 37° C. for 2 to 3 minutes, followed by addition of an enzyme solution and reaction for 30 minutes. Thereafter, water was added and the resulting mixture was heated in a boiling water bath for 2 minutes in order to inactivate the enzyme. Separately, the enzyme solution was added to each of the test solutions and immediately thereafter heated in boiling water bath for 2 minutes to inactivate the enzyme. This solution was used as a blank. The amount of […] D-glucose was measured in accordance with glucose-oxidase method. The substrate and test compounds were used in a solution of 0.1 M maleic acid buffer (pH 6.0). A 50% inhibitory concentration (IC50) was calculated from the value observed.

isomaltase = molecular target: T2, isomaltase (Homo sapiens, UniProt P14410); assay: α-glycosidase-inhibiting activity, isomaltase (small intestinal brush border membrane vesicles); settings: substrate isomaltose (74 mM), 0.1 M maleic acid buffer pH 6.0, 37° C., 30 minutes, glucose-oxidase method
T2 construct: suspending small intestinal brush border membrane vesicles in 0.1 M maleic acid buffer (pH 6.0); from tissue; host or cells: small intestinal brush border membrane vesicles
T2 sequence (P14410 whole entry, species assumed): as above
Experimental: as §1

maltase = assay: α-glycosidase-inhibiting activity, maltase (small intestinal brush border membrane vesicles); settings: substrate maltose (74 mM), 0.1 M maleic acid buffer pH 6.0, 37° C., 30 minutes, glucose-oxidase method
Experimental: as §1

| Structure (SMILES) | pIC50 (sucrase) | pIC50 (isomaltase) | IC50, maltase (maltase) [µg/mL] |
| --- | --- | --- | --- |
| O=S(=O)([O-])OC(C(O)C[S+]1CC(O)C(O)C1CO)C(O)C(O)C(O)CO (single isomer, unassigned) [Compound (6a)] | 4.17 | 5.79 | 20.6 (≈ 48.5 µM) |
| O=S(=O)([O-])OC(C(O)C[S+]1CC(O)C(O)C1CO)C(O)C(O)C(O)CO (single isomer, unassigned) [Compound (6b)] | 3.87 | 4.97 | >100 |
| O=S(=O)([O-])OC(C(O)C[S+]1CC(O)C(O)C1CO)C(O)C(O)C(O)CO (single isomer, unassigned) [Compound (6d)] | 4.49 | 5.19 | 24.8 (≈ 58.4 µM) |
| O=S(=O)([O-])OC(C(O)C[S+]1CC(O)C(O)C1CO)C(O)C(O)C(O)CO (single isomer, unassigned) [Compound (6g)] | < 3.63 | 3.80 | >100 |
| O=S(=O)([O-])OC(C(O)C[S+]1CC(O)C(O)C1CO)C(O)C(O)C(O)CO (single isomer, unassigned) [kotalanol, reference compound] | 6.12 | 5.25 | 3.07 (≈ 7.23 µM) |
| O=S(=O)([O-])OC(C(O)C[S+]1CC(O)C(O)C1CO)C(O)C(O)C(O)CO (stereo not drawn) [Compound (6c)] | 3.67 | 4.79 | >100 |
